Experimental data from patent publication US10857110B2, “Antibacterial compounds” (CONSEJO NACIONAL DE INVESTIGACIONES CIENTÍFICAS Y TÉCNICAS …, priority 2016, dated 2020).
Converted amounts (≈) assume the structure as drawn.

Columns and labels:
Assay in all cases: MIC/MBC antibiotic sensitivity (CLSI)
Type in all cases: cell-based
[1] = tested on: Burkholderia multivorans (CBC 020); conditions: Burkholderia multivorans (CBC 020)
Description: (§1) The new compounds of the invention were synthesized following the general method of preparation (Tetrahedron, 2001, 57, 1671-1675), from the reaction between an intermediary compound of the acyl thiourea and HgCl2 in presence of trimethylamine. The products were adequately characterized regarding its chemistry. The antibacterial activity of the new compounds was assayed against two Gram-positive reference strains: Staphylococcus aureus (ATCC6538) and Bacillus cereus (ATCC10876), a fermenting Gram-negative strain: Escherichia coli (ATCC25922), and 26 non-fermenting Gram-negative isolates, including 3 reference strains: Pseudomonas aeruginosa (PAO1), Bordetella bronchiseptica (9.73H+), and Inquilinus limosus (DSM16000), and 23 isolates recovered from patients suffering from cystic fibrosis, including one Achromobacter xylosoxidans isolate, and 22 isolates belonging to the Burkholderia cepacia complex. The later were selected because they presented resistance to a high number of antimicrobial compounds, among a panel of 125 clinical isolates previously analyzed for its resistance against 17 antimicrobial compounds (1,2). The antibiotic sensitivity studies were performed by applying two quantitative methods which allow to determine the minimum inhibitory concentration (MIC) and the minimum bactericidal concentration (MBC).
(§2) The compounds obtained in Examples 1 and 2 were assayed against 23 isolates recovered from the sputum of patients suffering from cystic fibrosis being treated at the Sor Maria Ludovica Children Hospital (La Plata, Buenos Aires, Argentina). Nineteen of these isolates were selected for being highly resistant to most of the antimicrobial agents of clinical use from a panel of 125 isolates previously characterized in Martina et al. (1). Reference strains were also included: Gram (+) bacteria: B. cereus and S. aureus, fermenting Gram (−) bacteria: E. coli, and non-fermenting Gram (−) bacteria: Inquilinus limosus (DSM16000), B. bronchiseptica, and Pseudomonas aeruginosa (PAO1). The antibiotic sensitivity studies were performed applying two quantitative methods which allow to determine the minimum inhibitory concentration (MIC) and the minimum bactericidal concentration (MBC) according to the criteria established by the Clinical and Laboratory Standards Institute (CLSI) (4). For comparative purposes, three antibiotics commonly used in the treatment of pulmonary infections in cystic fibrosis patients were included in the study: tobramycin, ceftazidime and meropenem.

[2] = tested on: Bordetella bronchiseptica (9.73H+); conditions: B. bronchiseptica (9.73H+)
Description: as §1, §2

[3] = tested on: Burkholderia cenocepacia (CBC 032); conditions: Burkholderia cenocepacia (CBC 032)
Description: as §1, §2

[4] = tested on: Burkholderia seminalis (CBC 040); conditions: Burkholderia seminalis (CBC 040)
Description: as §1, §2

[5] = tested on: Staphylococcus aureus (ATCC6538)
Description: as §1, §2

[6] = tested on: Burkholderia seminalis (CBC 042); conditions: Burkholderia seminalis (CBC 042)
Description: as §1, §2

[7] = tested on: Burkholderia multivorans (CBC 018); conditions: Burkholderia multivorans (CBC 018)
Description: as §1, §2

[8] = tested on: Burkholderia cenocepacia (CBC 031); conditions: Burkholderia cenocepacia (CBC 031)
Description: as §1, §2

[9] = tested on: Escherichia coli (ATCC25922)
Description: as §1, §2

[10] = tested on: Burkholderia cenocepacia (CBC 023); conditions: Burkholderia cenocepacia (CBC 023)
Description: as §1, §2

[11] = tested on: Burkholderia cenocepacia (CBC 024); conditions: Burkholderia cenocepacia (CBC 024)
Description: as §1, §2

[12] = tested on: Burkholderia cenocepacia (CBC 033); conditions: Burkholderia cenocepacia (CBC 033)
Description: as §1, §2

[13] = tested on: Burkholderia cenocepacia (HE001); conditions: Burkholderia cenocepacia (HE001)
Description: as §1, §2

[14] = tested on: Pseudomonas aeruginosa (PAO1); conditions: Pseudomonas aeruginosa, P. aeruginosa (PAO1)
Description: as §1, §2

[15] = tested on: B. contaminans (HNBC001)
Description: as §1, §2

[16] = tested on: Burkholderia cepacia (CBC 010); conditions: Burkholderia cepacia (CBC 010)
Description: as §1, §2

[17] = tested on: Inquilinus limosus (DSM16000)
Description: as §1, §2

[18] = tested on: Burkholderia cepacia (CBC 011); conditions: Burkholderia cepacia (CBC 011)
Description: as §1, §2

[19] = tested on: Burkholderia multivorans (CBC 015); conditions: Burkholderia multivorans (CBC 015)
Description: as §1, §2

[20] = tested on: Burkholderia multivorans (CBC 021); conditions: Burkholderia multivorans (CBC 021)
Description: as §1, §2

[21] = tested on: Burkholderia cenocepacia (CBC 036); conditions: Burkholderia cenocepacia (CBC 036)
Description: as §1, §2

[22] = tested on: Burkholderia multivorans (CBC 019); conditions: Burkholderia multivorans (CBC 019)
Description: as §1, §2

[23] = tested on: Burkholderia cenocepacia (CBC 029); conditions: Burkholderia cenocepacia (CBC 029)
Description: as §1, §2

[24] = tested on: Burkholderia cenocepacia (CBC 035); conditions: Burkholderia cenocepacia (CBC 035)
Description: as §1, §2

MIC ([1]; read-out: MIC): 3.9 µg/mL (≈ 6.46 µM) | MIC ([2]; read-out: MIC): 0.48 µg/mL (≈ 0.796 µM) | MIC ([3]; read-out: MIC): 1.95 µg/mL (≈ 3.23 µM) | MIC ([4]; read-out: MIC): 3.9 µg/mL (≈ 6.46 µM) | MIC ([5]; Staphylococcus aureus, S. aureus (ATCC6538), read-out: MIC): 0.24 µg/mL (≈ 0.398 µM) | MIC ([6]; read-out: MIC): 0.96 µg/mL (≈ 1.59 µM) | MIC ([7]; read-out: MIC): 1.95 µg/mL (≈ 3.23 µM) | MIC ([8]; read-out: MIC): 1.95 µg/mL (≈ 3.23 µM) | MIC ([9]; Escherichia coli, E. coli (ATCC25922), read-out: MIC): 0.97 µg/mL (≈ 1.61 µM) | MIC ([10]; read-out: MIC): 1.95 µg/mL (≈ 3.23 µM) | MIC ([11]; read-out: MIC): 1.95 µg/mL (≈ 3.23 µM) | MIC ([12]; read-out: MIC): 3.9 µg/mL (≈ 6.46 µM) | MIC ([13]; read-out: MIC): 3.9 µg/mL (≈ 6.46 µM) | MIC ([14]; read-out: MIC): 0.48 µg/mL (≈ 0.796 µM) | MIC ([15]; read-out: MIC): < 0.48 µg/mL | MIC ([16]; read-out: MIC): 3.9 µg/mL (≈ 6.46 µM) | MIC ([17]; read-out: MIC): 3.9 µg/mL (≈ 6.46 µM) | MIC ([18]; read-out: MIC): 1.95 µg/mL (≈ 3.23 µM) | MIC ([19]; read-out: MIC): 1.95 µg/mL (≈ 3.23 µM) | MIC ([20]; read-out: MIC): 1.95 µg/mL (≈ 3.23 µM) | MIC ([21]; read-out: MIC): 1.95 µg/mL (≈ 3.23 µM) | MIC ([22]; read-out: MIC): 1.95 µg/mL (≈ 3.23 µM) | MIC ([23]; read-out: MIC): 3.9 µg/mL (≈ 6.46 µM) | MIC ([24]; read-out: MIC): 1.95 µg/mL (≈ 3.23 µM)
SMILES: O=C(NC(=Nc1c(F)cc(F)cc1Br)Nc1c(F)cc(F)cc1Br)C12CC3CC(CC(C3)C1)C2 [H-BDF, N—(N,N′-bis(2-bromo-4,6-difluorophenyl)carbamimidoyl)adamantane-1-carboxamide]
MBC [1]: 15.6 µg/mL (≈ 25.9 µM) | MBC ([2]; read-out: MBC): 1.95 µg/mL (≈ 3.23 µM) | MBC ([3]; read-out: MBC): 3.9 µg/mL (≈ 6.46 µM) | MBC [4]: 7.81 µg/mL (≈ 12.9 µM) | MBC ([5]; Staphylococcus aureus, S. aureus (ATCC6538), read-out: MBC): 0.97 µg/mL (≈ 1.61 µM) | Selectivity Index (SI) ([5]; ratio IC50 (THP-I) / MIC against S. aureus): 62 | MBC [6]: 7.81 µg/mL (≈ 12.9 µM) | MBC ([7]; read-out: MBC): 7.81 µg/mL (≈ 12.9 µM) | MBC ([8]; read-out: MBC): 7.81 µg/mL (≈ 12.9 µM) | MBC ([9]; Escherichia coli, E. coli (ATCC25922), read-out: MBC): 1.95 µg/mL (≈ 3.23 µM) | Selectivity Index (SI) ([9]; ratio IC50 (THP-I) / MIC for E. coli): 16 | MBC [10]: 3.9 µg/mL (≈ 6.46 µM) | MBC ([11]; read-out: MBC): 7.81 µg/mL (≈ 12.9 µM) | MBC ([12]; read-out: MBC): 15.6 µg/mL (≈ 25.9 µM) | MBC [13]: 61.2 µg/mL (≈ 102 µM) | MBC ([14]; read-out: MBC): 3.9 µg/mL (≈ 6.46 µM) | MBC [15]: 0.97 µg/mL (≈ 1.61 µM) | MBC [16]: 7.81 µg/mL (≈ 12.9 µM) | MBC [17]: 7.81 µg/mL (≈ 12.9 µM) | MBC [18]: 30.2 µg/mL (≈ 50 µM) | MBC ([19]; read-out: MBC): 3.9 µg/mL (≈ 6.46 µM) | MBC [20]: 3.9 µg/mL (≈ 6.46 µM) | MBC ([21]; read-out: MBC): 7.81 µg/mL (≈ 12.9 µM) | MBC [22]: 7.81 µg/mL (≈ 12.9 µM) | MBC ([23]; read-out: MBC): 15.6 µg/mL (≈ 25.9 µM) | MBC ([24]; read-out: MBC): 3.9 µg/mL (≈ 6.46 µM)
